Positions of bridges follow the written chain, without caps; N, C: chain ends. Residues, ends and D or L forms follow the SMILES beside them.
System: thermal nociception in naïve rats
Details: 1.6 μg i.t.

For `CSCC[C@@H]1NC(=O)[C@H](Cc2c[nH]c3ccccc23)NC(=O)[C@H](CCCCN)NC(=O)[C@H](CCC(N)=O)NC(=O)[C@@H](NC(=O)[C@@H](N)CCC(N)=O)CSSC[C@@H]2NC(=O)[C@@H]3CSSC[C@@H](C(=O)N[C@@H](CCCNC(=N)N)C(=O)N[C@@H](CCCCN)C(=O)N[C@@H](CCC(=O)O)C(=O)N[C@@H](CC(C)C)C(=O)N[C@@H](CC(C)C)C(N)=O)NC(=O)[C@H](Cc4c[nH]c5ccccc45)NC(=O)[C@H](CC(C)C)NC(=O)[C@H](CCCNC(=N)N)NC(=O)[C@H](CSSC[C@H](NC(=O)[C@H]([C@@H](C)O)NC(=O)[C@H](CCC(N)=O)NC1=O)C(=O)N[C@@H](CC(=O)O)C(=O)N[C@@H](CCCCN)C(=O)N[C@@H](CC(=O)O)C(=O)N[C@@H](CCCNC(=N)N)C(=O)N[C@@H](CCCCN)C(=O)N3)NC(=O)[C@H](CCCNC(=N)N)NC(=O)[C@H](Cc1ccccc1)NC(=O)CNC(=O)[C@H](CCC(=O)O)NC2=O` [PTx2-3127] (H-QCQKWMQTCDKDRKCCEGFRCRLWCRKELL-NH2; disulfide 2-16, 9-21, 15-25), the motor activity was “did not lame or significantly alter motor activity”.

Reference: US20260001922A1, “PEPTIDES TARGETING SODIUM CHANNELS TO TREAT PAIN” (priority 2022, published 2026)
